# Results as given in patent EP4094756A1 (priority 2021, dated 2022).
# Read-outs that look alike come from different tables or passages of the source.
# Columns and labels:
# [1] = system: VSV-ΔG SARS CoV-2 S pseudovirus; format: cell-based
# SARS CoV-2 = format: cell-based
# in vitro = conditions: monkey, vero cells
# Method: (§1) Also, controls (solvent, Staurosporin (1 µM)) were prepared. Supernatants of cells were removed and substances applied for 8h, 24h and 48h at 37°C. • On day 2-4: fresh MTT [3-(4,5-Dimethylthiazol-2yl)-2,5-diphenyl-tetrazolium-bromid] was diluted in PBS to a final concentration of 5 mg/ml and 25 µl/well of MTT-solution were directly added to the wells and incubated for 1 h at 37°C. • MTT supernatant was removed and cells were lysed by 50 µl/well of 100 % DMSO and incubated for 1-5 minutes at room temperature. • Measurements were done at 562 nm in a photometer and % cell survival were calculated as = 100 × OD (sample) / OD (control).
# [2] = human, in vivo, iv; cited from earlier work
# [3] = MTT assay (cell survival); conditions: monkey, vero cells
# Method: as §1
smiles,measurement,setting,value
"CC(C)=CCC[C@]1(C)[C@@H](CC=C(C)C)C[C@]2(CC=C(C)C)C(=O)C(CC=C(C)C)=C(O)[C@@]1(C(=O)C(C)C)C2=O [Hyperforin, hyperforin, reference compound]",impact on the VSV pseudovirus,[1],did not have comparable impact
"Cc1cc(O)c2c(=O)c3c(O)cc(O)c4c5c(O)cc(O)c6c(=O)c7c(O)cc(C)c8c1c2c(c34)c(c78)c65 [Hypericin, hypericin]",viral load in diseased cells (PFU/ml),SARS CoV-2,dramatically lowers the viral load
same,MNTC,in vitro,1 µg/mL
same,inhibition of the VSV pseudovirus,[1],clearly inhibited
same,initial peak plasma levels,[2],29.5 ng/mL
"Oc1cc(O)c2c(c1)O[C@H](c1ccc(O)c(O)c1)[C@H](O)[C@H]2c1c(O)cc(O)c2c1O[C@H](c1ccc(O)c(O)c1)[C@H](O)[C@H]2c1c(O)cc(O)c2c1O[C@H](c1ccc(O)c(O)c1)[C@H](O)C2 [Procyanidin C1, reference compound]",MNTC,[3],50 µM
same,effect on the VSV pseudovirus,[1],no significant inhibition
"Cc1cc(O)c2c(=O)c3c(O)cc(O)c4c5c(O)cc(O)c6c(=O)c7c(O)cc(CO)c8c1c2c(c34)c(c65)c78 [Pseudohypericin, pseudohypericin]",MNTC,[3],1 µg/mL
same,inhibition of the VSV pseudovirus,[1]; 1µg/ml,clearly inhibited
